Experiment [1] concerns Mus musculus. Nature of the experiment: Antihyperglycemic activity in established high fat diet-induced obese mouse assessed as reduction in body weight at 10 mg/kg, iv administered once daily for 14 days. Format: functional, organism-based.
The target of experiment [2] is T1, Peroxisome proliferator-activated receptor gamma (Homo sapiens) (UniProt P37231).
T1 sequence (whole entry): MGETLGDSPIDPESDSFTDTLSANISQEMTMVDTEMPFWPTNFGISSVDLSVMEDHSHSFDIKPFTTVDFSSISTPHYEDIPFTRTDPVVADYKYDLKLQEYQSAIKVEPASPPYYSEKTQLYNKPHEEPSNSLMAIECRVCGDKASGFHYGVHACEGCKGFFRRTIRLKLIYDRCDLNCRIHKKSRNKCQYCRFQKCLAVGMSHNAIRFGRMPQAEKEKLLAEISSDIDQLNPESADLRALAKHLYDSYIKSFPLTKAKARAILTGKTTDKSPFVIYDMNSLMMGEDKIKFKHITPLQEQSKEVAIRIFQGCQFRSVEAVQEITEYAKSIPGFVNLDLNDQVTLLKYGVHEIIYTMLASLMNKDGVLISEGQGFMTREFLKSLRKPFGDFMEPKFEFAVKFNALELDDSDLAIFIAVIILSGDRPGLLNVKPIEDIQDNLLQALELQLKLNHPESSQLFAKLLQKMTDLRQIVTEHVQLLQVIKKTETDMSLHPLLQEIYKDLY
Nature of the experiment: Transactivation of recombinant human N-terminal GAL4-DBD fused PPARgamma LBD expressed in reporter cells at 30 uM measured after 24 hrs by luciferase reporter gene assay relative to control. It counts as cell-based.

For experiment [3], the system named is Mus musculus. Nature of the experiment: Antihyperglycemic activity in established high fat diet-induced obese mouse assessed as reduction in blood glucose level at 10 mg/kg, iv administered once daily for 14 days measured at 1 hr post dose on day 7 and 14 during compound dosing in presence of glimepride. It counts as functional, organism-based.
Experiment [4] addresses Free fatty acid receptor 1 (Homo sapiens, UniProt O14842). Nature of the experiment: Transactivation of recombinant human FFAR1 expressed in CHOK1 cells co-expressing Galpha15 assessed as increase in calcium flux measured after 20 secs for 100 secs by FLIPR assay. It counts as functional, cell-based. Background: A change in cytosolic calcium serves as a functional read-out for many receptors and channels.

Experiment [5] concerns the target T1, Peroxisome proliferator-activated receptor gamma (Homo sapiens). Nature of the experiment: Transactivation of recombinant human N-terminal GAL4-DBD fused PPARgamma LBD expressed in reporter cells at 30 uM measured after 24 hrs by luciferase reporter gene assay relative to rosiglitazone. It counts as cell-based. In general terms: Reporter assays use an easily measured gene product as a stand-in for the process of interest.

The subject of experiment [6] is Mus musculus. Nature of the experiment: Antihyperlipidemic activity in established high fat diet-induced obese mouse assessed as reduction in plasma triglyceride level at 10 mg/kg, iv administered once daily for 14 days measured at 1 hr post dose on day 7 and 14 during compound dosing by colorimetric method relative to rosiglitazone. It counts as functional.
The subject of experiment [7] is Mus musculus. Nature of the experiment: Antihyperglycemic activity in established high fat diet-induced obese mouse assessed as reduction in blood glucose level at 10 mg/kg, iv administered once daily for 14 days measured at 1 hr post dose on day 7 and 14 during compound dosing. It counts as functional, organism-based.
The target of experiment [8] is T2, Peroxisome proliferator-activated receptor gamma (Homo sapiens, UniProt P37231).
T2 sequence (P37231 whole entry): T1 sequence (whole entry)
Nature of the experiment: Transactivation of recombinant human N-terminal GAL4-DBD fused PPARgamma LBD expressed in reporter cells measured after 24 hrs by luciferase reporter gene assay. It counts as cell-based.

For experiment [9], the system named is Mus musculus. Nature of the experiment: Antihyperglycemic activity in established high fat diet-induced obese mouse assessed as reduction in blood glucose level at 10 mg/kg, iv administered once daily for 14 days measured at 1 hr post dose on day 7 and 14 during compound dosing relative to rosiglitazone. Format: functional.
Experiment [10] has as its system Mus musculus. Nature of the experiment: Antihyperglycemic activity in established high fat diet-induced obese mouse assessed as reduction in blood glucose level at 10 mg/kg, iv administered once daily for 14 days measured at 1 hr post dose on day 7 and 14 during compound dosing in presence of rosiglitazone. Format: functional, organism-based.

Calls of active or inactive are those of the source. The rule behind the calls is not given here.

Chain of Free fatty acid receptor 1 (O14842 whole entry): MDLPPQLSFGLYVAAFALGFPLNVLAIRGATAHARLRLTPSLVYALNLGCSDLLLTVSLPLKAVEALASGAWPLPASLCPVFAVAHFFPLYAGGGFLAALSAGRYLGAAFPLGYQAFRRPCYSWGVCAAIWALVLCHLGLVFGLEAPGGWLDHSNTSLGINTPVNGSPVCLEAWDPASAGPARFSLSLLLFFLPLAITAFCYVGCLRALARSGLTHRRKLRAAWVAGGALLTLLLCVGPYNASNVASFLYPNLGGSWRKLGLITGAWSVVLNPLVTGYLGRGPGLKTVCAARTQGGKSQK

As for `CN(CCOc1ccc(CC2SC(=O)NC2=O)cc1)c1ccccn1` (stereo not drawn), the result in experiment [1] and in experiment [3] was Active. Further, in experiment [2], the fold change (FC) is 43.1.

Usually EC50 stands for the midpoint of the concentration-response curve. For the compound `Cc1ccccc1C(OCCOc1ccc(CC2SC(=O)NC2=O)cc1)c1ccccc1` (stereo not drawn), in [4], the EC50 result is listed as “Not Active”. For the same compound, in experiment [5], the Activity worked out at 4.4%.

In the case of `COc1ccc(C(OCCOc2ccc(CC3SC(=O)NC3=O)cc2)c2ccccc2)cc1` (stereo not drawn), the EC50 in experiment [4] (read-out: EC50) stood at 17.8 µM. Moreover, the “fold change (FC)” value in experiment [6] is 5.5. Moreover, in experiment [5], the Activity came to 12.1%. Moreover, the result in [7] was Active.

With `CCCCC/C=C/C/C=C/C/C=C/CCCCC(=O)O`, in experiment [4] (read-out: EC50), the EC50 turned out to be 0.24 µM.

With `O=C1NC(=O)C(Cc2ccc(OCCn3ccc4ccccc43)cc2)S1` (stereo not drawn), the 50% effective concentration (EC50) in experiment [4] (read-out: EC50) amounted to 2.19 µM; in [8] it was 3.94 µM. For the same compound, in [2], the fold change (FC) stood at 56.1. Besides, in experiment [5], the Activity turned out to be 130%. Also, the result in experiment [7] was Active.

For `O=C1NC(=O)C(Cc2ccc(OCCn3ccc4ccc(Cl)cc43)cc2)S1` (stereo not drawn), the result in [1] and in experiment [7] was Active. Further, the EC50 is 5.06 µM in experiment [4] (read-out: EC50) and 4.51 µM in experiment [8]. Further, the “fold change (FC)” value in experiment [9] worked out at 6; in experiment [6], 3.5. The Activity in experiment [5] turned out to be 83.7%.

On to `O=C1NC(=O)C(Cc2ccc(OCCOC(c3ccccc3)c3ccccc3)cc2)S1` (stereo not drawn), for which, in [4] (read-out: EC50), the EC50 amounted to 21.3 µM. For the same compound, the fold change (FC) in experiment [2] came out at 4. The Activity in experiment [5] was 9.3%. In experiment [7], the result was Active.

With `CCC1=C(C)CN(C(=O)NCCc2ccc(S(=O)(=O)NC(=O)N[C@H]3CC[C@H](C)CC3)cc2)C1=O`, the outcome in [1] and in [10] was Active.

As to `O=C1NC(=O)C(Cc2ccc(OCCn3c(-c4ccccc4)cc4ccccc43)cc2)S1` (stereo not drawn), the EC50 result in experiment [4] is “Not Active”. Moreover, the Activity in experiment [5] came to 34.9%.

As for `O=C1NC(=O)C(Cc2ccc(OCCn3cnc4ccccc43)cc2)S1` (stereo not drawn), the figures for the EC50 in experiment [4] (read-out: EC50) and in [8] were 4.31 µM and 2.32 µM, respectively. Also, the fold change (FC) in experiment [2] stood at 29.7. Also, the Activity in [5] came to 69.8%.

Consider `O=C1NC(=O)C(Cc2ccc(OCCOC(c3ccccc3)c3ccc(Cl)cc3)cc2)S1` (stereo not drawn), for which, in experiment [4], the EC50 result was “Not Active”. Further, the Activity in [5] was 10.7%.

With `O=C1NC(=O)C(Cc2ccc(OCCOc3cccc4ccccc34)cc2)S1` (stereo not drawn), the EC50 result in experiment [4] is “Not Active”. In addition, in [5], the Activity was determined as 13.3%.

As for `O=C1NC(=O)C(Cc2ccc(OCCn3c(CO)nc4ccccc43)cc2)S1` (stereo not drawn), in [4], the EC50 result was “Not Active”. Also, the Activity in [5] was 39.5%.

As for `O=C1NC(=O)C(Cc2ccc(OCCOC(c3ccccc3)c3ccc(C(F)(F)F)cc3)cc2)S1` (stereo not drawn), the EC50 in experiment [4] (read-out: EC50) stood at 11.3 µM. Also, in experiment [2], the fold change (FC) is over 0.01. Further, the outcome in [5] was inactive.

These data come from ChEMBL document CHEMBL4118117, “Synthesis, biological evaluation, and molecular docking investigation of benzhydrol- and indole-based dual PPAR-γ/FFAR1 agonists” (Bioorg Med Chem Lett, 2018).
